The source of these data is patent publication US20110130374A1, “Small Pyrimidine Derivatives and Methods of Use Thereof” (BIOSEARCH(2007) LTD., priority 2009, published 2011).

One experiment has as its system HUVEC cells. The experiment in a line: Transwell cell migration assay, HUVEC. In kind it is cell-based. The conditions noted are these: Homo sapiens, Endothelial. An excerpt: A375 (melanoma) (CRL-1619, ATCC, Manassas, Va., USA), A431 (melanoma) (CRL-2592, ATCC, Manassas, Va., USA), A2058 (melanoma) (CRL-11147, ATCC, Manassas, Va., USA), MDA-MB-231 (breast) (HTB-26, ATCC, Manassas, Va., USA), LS175T (colon) (ATCC, Manassas, Va., USA), HT29 (colon) (HTB-38, ATCC, Manassas, Va., USA), PC3 (prostate) (CRL-1435, ATCC, Manassas, Va., USA), Panc03.27 (pancreatic) (ATCC, Manassas, Va., USA), 4T1 (breast-mouse) (CRL-2539, ATCC, Manassas. Va., USA), D122 (lung-mouse) (the Weizmann Institute of Science), D122-luc (lung-mouse) (the Weizmann Institute of Science), and B16 F10.9 (melanoma-mouse) cells (Caliper Life Sciences, Hopkinton Mass.), were grown in RPMI medium supplemented with 10% FBS. HUVEC cells were grown in Endothelial Cell Growth Medium 2 and THP1 cells were grown in RPMI medium supplemented with 10% FBS, 2 mM L-Glutamine, 1.5 g/L sodium bicarbonate, 10 mM Hepes, 1 mM sodium pyruvate, 4.5 g/L glucose and 0.05 mM 2-mercaptoethanol. The cells were starved for 24 hours in medium without FBS. […] Cells that migrated to the lower side of the membrane were stained with Calcein-AM (Sigma) and images were taken with a fluorescence microscope. The number of migrating cells was quantified by ImageJ software and the IC50 values were calculated using Prism software (Graphpad).

In another experiment the test system is A375 melanoma cells. The experiment in a line: Soft agar colony formation, A375 melanoma cells. Type of experiment: cell-based. The conditions noted are these: 14 days, MTT; for soft agar colony formation: A375 melanoma cells. Here is the method:
The assay was done using CYTOSELECT™ 96-Well In Vitro Tumor Sensitivity Assay kit from Cell Biolabs, Inc. (San-Diego, Calif.). The cells were grown for 14 days with RPMI and 10% FBS medium in the presence of the indicated concentration of Compound 1 (PRT7000467). The quantification of the colony formation on soft agar was done using MTT reagent after solubilization of the agar (all the materials are supplied in the kit). The IC50 value was calculated using Prism software.

The next experiment has as its system oxazolone-induced DTH. The experiment in a line: Oxazolone-induced delayed-type hypersensitivity (DTH), ear swelling. Type of experiment: in vivo, BALB/c mice. As to conditions: oral, 1 hour before oxazolone challenge; compared with the control (FIG. 5). An excerpt: Anti inflammatory assay A delayed-type hypersensitivity (DTH) reaction is an expression of cell-mediated immunity and plays a major role in the pathology and chronicity of many inflammatory disorders. Delayed-type hypersensitivity (DTH) reactions can be induced by various allergens, including oxazolone, 2,4-dinitrofluorobenzene (DNFB) and sheep red blood cells (SRBCs). One of the most characteristic DTH phenomenons is contact hypersensitivity, which is characterized by swelling and by increased tissue levels of cytokines. Contact hypersensitivity (CHS) is a T cell-mediated immune reaction in response to cutaneous sensitization and challenge with reactive haptens that are capable of binding directly to soluble and cell-associated proteins and recognized by T cells in the context of self-MHC products. The cells that recognize antigen-protein complex in the skin are the Langerhans cells (LCs). […]
Ear swelling response will be determined by ear thickness measured with a micrometer before and 24 hours after oxazolone challenge and reported as the mean change in ear thickness (ΔT±S.E.M.). Percent suppression of ear swelling response will be calculated as % suppression=[1−(ΔT of sensitized mice exposed to experimental treatment/ΔT of sensitized mice exposed to vehicle treatment)]×100.

The subject of experiment [1] is MDA-MB-468 breast cancer cells. Nature of the experiment: Transwell cell migration assay, MDA-MB-468 breast cancer cells. Type of experiment: cell-based. The conditions noted are these: MDA-MB-468, 12.5 μM, 24 h, 8 μm pore (FIG. 2). The protocol: MDA-MB-231 (HTB-26, ATCC, Manassas, Va., USA) and MDA-MB-468 (HTB-132, ATCC, Manassas, Va., USA) breast cancer cell lines and DU 145 (HTB-81, ATCC, Manassas, Va., USA) prostate cancer cell line grown in RPMI medium supplement with 10% FBS were starved for 24 hours in medium without FBS. After 24 hours, 5×10^4 cells in FBS free medium were placed in the upper chamber of 24-well Transwell apparatus (CORNING TRANSWELL® polycarbonate membrane inserts, 8 μm pore size) with solvent (DMSO/PEG400) or 12.5 μM Compound 1 as indicated. Medium with FBS and Compound 1 was added to the bottom chamber. Twenty-four hours later the cells from the upper chamber were removed with a cotton swab. Cells that migrated to the lower side of the membrane were stained with Calcein-AM (Sigma) and images were taken with a fluorescence microscope.

By IC50 is commonly meant the point on the concentration scale where inhibition reaches its midpoint. High values mean lower potency, low ones higher potency. For `Cc1cc(C)nc(NS(=O)(=O)c2ccc(NC(=O)/C(=C\c3cccs3)NC(=O)c3cccs3)cc2)n1` [Compound 1], half-maximal inhibition in the experiment on HUVEC cells (IC50) was put at 2.9 µM. In the experiment on A375 melanoma cells (A375 cells), the “LD50 in the soft agar colony formation assay” value was in the range of 2.8 to 5.6 µM. Also, the “soft agar colony formation” value in the experiment on A375 melanoma cells is “inhibits soft agar colony formation”. The “anti-inflammatory activity (ear swelling response)” value in the experiment with oxazolone-induced DTH was “same anti-inflammatory activity as the control”. In addition, the “cell migration (Transwell, images)” value in experiment [1] is listed as “inhibits the migration”.

Turning to `Cc1cc(S(=O)(=O)Nc2ncccn2)ccc1NC(=O)/C(=C\c1cccs1)NC(=O)c1cccs1` [Compound 3], in the experiment with A375 melanoma cells, the “soft agar colony formation” value is “inhibit soft agar colony formation”. Also, the “anti-inflammatory activity (ear swelling response)” value with oxazolone-induced DTH is recorded as “same anti-inflammatory activity as the control”.
